As usually defined, the MIC is the lowest concentration that inhibits growth of the organism. The term melting point denotes the temperature of the solid-liquid transition.

One series deals with P. aeruginosa ATCC27853. In words: Doxycycline potentiation (MIC of antibiotic in presence of synergizing compound). Type of series: cell-based, Pseudomonas aeruginosa. The settings on record: doxycycline 2 μg/mL, P. aeruginosa ATCC 27853.
Series [1] can be described thus: Cytotoxicity assay (resazurin). The series is classed as cell-based, human. The settings on record: human; HEK293 cells; mean (n = 2); highest dose tested 32 μg/mL; read-out: Cytotoxicity (concentration of compound at 50% cytotoxicity, IC50).
The subject of a further series is human red blood cells. In words: Hemolytic assay. The settings on record: for Hemolysis (HC10, concentration at 10% hemolytic activity): mean (n = 2). The series is classed as cell-based. The method in brief: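 Washed human erythrocytes at 0.5 × 10^8 cells/mL in 0.9% NaCl, shaken 10 min with compound, then held 1 h at 37 °C. Released hemoglobin in supernatant after centrifugation read at OD405; HC10 and HC50 from variable-slope sigmoidal fit against log concentration.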

The subject of a further series is MRSA ATCC 43300. Description: MIC, CO-ADD broth microdilution. Type of series: cell-based, Staphylococcus aureus. The settings on record: for MIC: Staphylococcus aureus, MRSA ATCC 43300, mean (n = 2), read-out: MIC MRSA.
Series [2] concerns Escherichia coli ATCC 25922. Description: MIC, CO-ADD broth microdilution. The series is classed as cell-based. To be noted: ATCC25922, mean (n = 2). For orientation: In broth dilution the organism is exposed to a series of concentrations in liquid medium.
Series [3] has as its system Staphylococcus aureus ATCC 25923 or ATCC 29213. Description: MIC, broth dilution (CA-SFM). To be noted: Staphylococcus aureus ATCC 25923 or ATCC 29213; mean (n = 3); read-out: MIC S. a. The series is classed as cell-based.
Series [4] concerns Pseudomonas aeruginosa PAO1 or ATCC 27853. Description: MIC, broth dilution (CA-SFM). The series is classed as cell-based. The settings on record: mean (n = 3).
Series [5] has as its system Acinetobacter baumannii ATCC19606. Description: MIC, CO-ADD broth microdilution. The settings on record: mean (n = 2). Type of series: cell-based.
The subject of series [6] is Cryptococcus neoformans ATCC208821. In words: Antifungal MIC, CO-ADD. The series is classed as cell-based. To be noted: ATCC208821, Cryptococcus neoformans ATCC208821, mean (n = 2). The method in brief:
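Fungal strains were grown on YPD agar at 30 °C for 3 days. Five colonies were used to make a yeast suspension of 1 × 10^6 to 5 × 10^6 CFU/mL, which was diluted in yeast nitrogen base (YNB) broth to 2.5 × 10^3 CFU/mL. Covered plates were incubated without shaking at 35 °C for 36 h. Fluconazole was the positive control, and quality was judged from antimicrobial controls and the Z'-factor.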

The test system of series [7] is Candida albicans ATCC90028. In words: Antifungal MIC, CO-ADD. Type of series: cell-based. To be noted: mean (n = 2). The gist of the method: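 Yeast from 3-day YPD cultures was diluted in YNB broth to a final 2.5 × 10^3 CFU/mL and incubated at 35 °C for 36 h without shaking. C. albicans MICs were read by OD530 absorbance. QC used fluconazole and Z'-factor controls.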

Series [8] relates to Klebsiella pneumoniae ATCC700603. In words: MIC, CO-ADD broth microdilution. The series is classed as cell-based. The settings on record: mean (n = 2).
For series [9], the system named is HEK293 human embryonic kidney cells. In words: Cytotoxicity assay (resazurin). Type of series: cell-based. To be noted: HEK293.

Some results are limits rather than exact numbers.

Compound `Cl.Cl.S=C(NCCCNCCCCCCCCCCNCCCNC(=S)NC(c1ccccc1)c1ccccc1)NC(c1ccccc1)c1ccccc1` [Compound 6e, N^1,N^10-Bis(3-(3-benzhydrylthioureido)propyl)decane-1,10-diaminium chloride] yielded a melting point of 114 to 115 °C. Further, in the series on P. aeruginosa ATCC27853, the “antibiotic enhancement of doxycycline” value is listed as “particularly strong enhancers”. Besides, the IC50 at 20 h in [1] was more than 39.5 µM. The “Hemolysis (HC10, concentration at 10% hemolytic activity)” value in the series with human red blood cells was more than 39.5 µM. The MIC with MRSA ATCC 43300 is not above 0.31 µM. Further, the MIC in series [2] was not above 0.31 µM. Also, the MIC in [3] is more than 247 µM. Further, the MIC in [4] stood at 247 µM. The compound also registered an MIC in series [5] of 4.9 µM. Moreover, in series [6], the MIC was more than 39.5 µM. Besides, in [7], the MIC was not above 0.31 µM. The compound also showed an MIC in series [8] of more than 39.5 µM.

On to `O=C(CCC(=O)NCCCc1ccccc1)NCCCNCCCCCCCCCCCCNCCCNC(=O)CCC(=O)NCCCc1ccccc1.O=C(O)C(F)(F)F.O=C(O)C(F)(F)F` [Compound 14f, N^1,N^12-Bis(3-(4-oxo-4-((3-phenylpropyl)amino)butanamido)propyl)dodecane-1,12-diaminium 2,2,2-trifluoroacetate], for which the “cytotoxicity” value in series [9] was “non-toxic”. Also, the IC50 at 20 h in series [1] is more than 32.7 µM. The “hemolytic properties” value with human red blood cells was “non-hemolytic”. The “Hemolysis (HC10, concentration at 10% hemolytic activity)” value with human red blood cells is more than 32.7 µM. The “activity towards MRSA” value in the series on MRSA ATCC 43300 (MRSA) is “potent”. Further, the MIC was not above 0.26 µM in the series with MRSA ATCC 43300; more than 32.7 µM in series [2]; 6.25 µM in [3]; more than 100 µM in series [4]; more than 32.7 µM in [5]; more than 32.7 µM in series [6]. For the same compound, the MIC in series [7] and in series [8] was more than 32.7 µM throughout.

Take `O=C(CC(c1ccccc1)c1ccccc1)NCCCNCCCCNCCCNC(=O)CC(c1ccccc1)c1ccccc1.O=C(O)C(F)(F)F.O=C(O)C(F)(F)F` [Compound 15a, N^1,N^4-Bis(3-(3,3-diphenylpropanamido)propyl)butane-1,4-diaminium 2,2,2-trifluoroacetate]: in the series on P. aeruginosa ATCC27853, the “fold increase (antibiotic enhancement vs intrinsic MIC)” value was 4 fold. In addition, the IC50 at 20 h in series [1] is more than 37.8 µM. Further, the “Hemolysis (HC10, concentration at 10% hemolytic activity)” value in the series on human red blood cells is more than 37.8 µM. Moreover, the MIC is not above 0.3 µM in the series on MRSA ATCC 43300; not above 0.3 µM in series [2]; 6.25 µM in [3]; 50 µM in series [4]; more than 37.8 µM in series [5]; more than 37.8 µM in [6]. The MIC in series [7] and in series [8] was more than 37.8 µM each time.

Take `O=C(CCC(=O)NCCC(c1ccccc1)c1ccccc1)NCCCNCCCCNCCCNC(=O)CCC(=O)NCCC(c1ccccc1)c1ccccc1.O=C(O)C(F)(F)F.O=C(O)C(F)(F)F` [Compound 16a, N^1,N^4-Bis(3-(4-((3,3-diphenylpropyl)amino)-4-oxobutanamido)propyl)butane-1,4-diaminium 2,2,2-trifluoroacetate]: the “fold increase (antibiotic enhancement vs intrinsic MIC)” value with P. aeruginosa ATCC27853 worked out at 8 fold. In [1], the IC50 at 20 h is more than 31.5 µM. Also, in the series on human red blood cells, the “Hemolysis (HC10, concentration at 10% hemolytic activity)” value is more than 31.5 µM. Further, the MIC is not above 0.25 µM in the series with MRSA ATCC 43300; more than 31.5 µM in series [2]; 25 µM in [3]; 20 µM in series [4] (18 h); more than 31.5 µM in series [5]; not above 0.28 µM in series [6]. Further, the MIC in series [7] and in series [8] was more than 31.5 µM throughout.

With `Cl.Cl.S=C(NCCCNCCCCCCCNCCCNC(=S)NC(c1ccccc1)c1ccccc1)NC(c1ccccc1)c1ccccc1` [Compound 6c, N^1,N^7-Bis(3-(3-benzhydrylthioureido)propyl)heptane-1,7-diaminium chloride], the melting point lay in the range of 115 to 116 °C. Also, the IC50 at 20 h in series [1] is more than 41.7 µM. Moreover, the “Hemolysis (HC10, concentration at 10% hemolytic activity)” value in the series with human red blood cells was not above 0.326 µM. Also, the MIC in the series with MRSA ATCC 43300 was not above 0.33 µM. The compound further returned an MIC in [2] not above 0.33 µM. Moreover, the MIC in series [3] amounted to 65 µM. Also, the MIC in [4] was more than 260 µM. Besides, in series [5], the MIC stood at 2.6 µM. The MIC in series [6] was found to be 0.65 µM. Besides, the MIC in series [7] is not above 0.33 µM. The compound further registered an MIC in series [8] of more than 41.7 µM.

`Cl.Cl.S=C(NCCCNCCCCNCCCNC(=S)NC(c1ccccc1)c1ccccc1)NC(c1ccccc1)c1ccccc1` [Compound 6a, N^1,N^4-Bis(3-(3-benzhydrylthioureido)propyl)butane-1,4-diaminium chloride]: the melting point is 168 to 169 °C. The IC50 at 20 h in [1] is more than 44.1 µM. In addition, in the series on human red blood cells, the “Hemolysis (HC10, concentration at 10% hemolytic activity)” value came out at 7.73 µM. The MIC with MRSA ATCC 43300 is not above 0.34 µM. The compound also had an MIC in series [2] of 2.8 µM. Moreover, in [3], the MIC was more than 276 µM. In [4], this compound gave an MIC of 138 µM. The compound further had an MIC in series [5] (18 h) not above 0.35 µM. The compound further registered an MIC in series [6] of 11 µM. Besides, in series [7], the MIC is not above 0.34 µM. This compound also came in with an MIC in [8] of more than 44.1 µM.
